This is an account of results in patent publication US7763648B2, “Oxa-steroids derivatives as selective progesterone receptor modulators” (Janssen Pharmaceutica N.V., priority 2006, dated 2010).

Some results are limits rather than exact numbers.

For experiment [1], the system named is T47D human breast cancer cells. Nature of the experiment: T47D Human Breast Cancer Cells Assay (alkaline phosphatase). The class given is cell-based. As to conditions: 24 h with test compound, luminescence. The protocol: T47D Human Breast Cancer Cells Assay
T47D human breast cancer cells were grown in RPMI medium without phenol red (Invitrogen) containing 10% (v/v) heat-inactivated fetal bovine serum (FBS; Hyclone), 1% (v/v) penicillin-streptomycin (Invitrogen), 1% (w/v) glutamine (Invitrogen), and […] insulin (Sigma). Incubation conditions were 37° C. in a humidified 5% (v/v) carbon dioxide environment.
The cells were plated in 96-well tissue culture plates at 10,000 cells per well in assay medium [RPMI medium without phenol red (Invitrogen) containing 5% (v/v) charcoal-treated FBS (Hyclone) and 1% (v/v) penicillin-streptomycin (Invitrogen)]. Two days later, the medium was decanted and test compound or control were added at a final concentration of 0.1% (v/v) dimethyl sulfoxide in fresh assay medium. Twenty-four hours later, an alkaline phosphatase assay was performed using a SEAP kit (BD Biosciences Clontech, Palo Alto, Calif.). Briefly, the medium was decanted and the cells were fixed for 30 minutes at room temperature with 5% (v/v) formalin (Sigma). The cells were washed once with room temperature Hank's buffered saline solution (Invitrogen). Equal volumes (0.05 mL) of 1× Dilution Buffer, Assay Buffer and 1:20 substrate/enhancer mixture were then added. After 1 hour incubation at room temperature in the dark, the lysate was transferred to a white 96-well plate (Dynex) and luminescence was read using a LuminoSkan Ascent (Thermo Electron, Woburn, Mass.).

Experiment [2] deals with A549 Human lung carcinoma cells. Nature of the experiment: A549 Human Lung Cell Assay (transfected, dexamethasone challenge, Luc-assay). The class given is cell-based. As to conditions: Dexamathasone challenge, 24 h. The method, then:
A549 Human Lung Cell Assay
A549 Human lung carcinoma cells were grown in F-12K Nutrient Mixture containing 10% (v/v) fetal bovine serum (FBS; Invitrogen), 2 mM glutamine and 0.15% sodium dicarbonate (Invitrogen).
A549 cells were split 1 to 3 in 175 cm tissue culture flask. The cells were incubated at 37° C. in CO2 incubator until the cells were 95% confluent (typically 24-30 hours).
The following solutions were prepared in sterile tubes: (a) Solution A: 1.5 μg/ml of DNA in 8.5 ml OPTI-MEM I Reduced Serum Medium. (GIBCO cat# 31985) and (b) Solution B: 6 μl/ml of DMRIE-C Reagent into […] OPTI-MEM I. The two solutions were combined and mixed gently, then incubated at room temperature for 40 minutes.
The A549 cells prepared above were washed with […] of OPTI-MEM I. The medium was removed and 17 ml of the lipid-DNA complex solution was overlayed onto cells. The cells ere then incubated for 16 h at 37° C. in CO2 incubator. The DNA-containing medium was removed and 30 ml of growth medium was added. (5% Charcoal treated FBS) After 5-6 h, the cells were seeded in a 96 well plate and the cells incubated overnight at 37° C. in CO2 incubator.
To each well was then added 5 μl of test compounds and the cells incubated at 37° C. for 10 min. 5 μL of Dexamathasone (CAS [50-02-2]), was then added to each well for challenger and the cells incubated at 37° C. in CO2 incubator for 24 h. 100 μl of Luc-assay buffer was then added into each cell well and the cells incubated for 30 min at room temperature. A 150 μL sample from each well was then transferred into a DYNEX Microlitel plate and read on Top-counter.

Turning to `CN(C)c1ccc([C@H]2C[C@@]3(C)[C@@H](CC[C@@]3(O)C#Cc3ccccc3C(F)(F)F)[C@@H]3OCC4=CC(=O)CCC4=C32)cc1` [Compound 22, 11-(4-Dimethylamino-phenyl)-17-hydroxy-13-methyl-17-(2-trifluoromethyl-phenylethynyl)-1,2,8,11,12,13,14,15,16,17-decahydro-6H-7-oxa-cyclopenta[a]phenanthren-3-one], the IC50 was found to be 0.00315 µM in experiment [1] and 0.051 µM in experiment [2].
The corresponding values for `Cc1ccc(C#C[C@]2(O)CC[C@H]3[C@@H]4OCC5=CC(=O)CCC5=C4[C@@H](c4ccc(N(C)C)cc4)C[C@@]32C)cc1` [Compound 7, 11-(4-Dimethylamino-phenyl)-17-hydroxy-13-methyl-17-p-tolylethynyl-1,2,8,11,12,13,14,15,16,17-decahydro-6H-7-oxa-cyclopenta[a]phenanthren-3-one] are 0.0016 µM and 0.0221 µM.
For `COc1ccc(C#C[C@]2(O)CC[C@H]3[C@@H]4OCC5=CC(=O)CCC5=C4[C@@H](c4ccc(N(C)C)cc4)C[C@@]32C)cc1` [Compound 15, 11-(4-Dimethylamino-phenyl)-17-hydroxy-17-(4-methoxy-phenylethynyl)-13-methyl-1,2,8,11,12,13,14,15,16,17-decahydro-6H-7-oxa-cyclopenta[a]phenanthren-3-one] the same measures were 0.0032 µM and 0.0803 µM.
As to `CN(C)c1ccc(C2C[C@@]3(C)[C@@H](CC[C@@]3(O)C#Cc3ccncc3)[C@@H]3OCC4=CC(=O)CCC4=C23)cc1` (stereo in doubt) [Compound 28, 11-(4-Dimethylamino-phenyl)-17-hydroxy-13-methyl-17-pyridin-4-ylethynyl-1,2,8,11,12,13,14,15,16,17-decahydro-6H-7-oxa-cyclopenta[a]phenanthren-3-one], the IC50 in experiment [1] was 0.039 µM; in experiment [2], 0.246 µM.
Regarding `CN(C)c1ccc([C@H]2C[C@@]3(C)[C@@H](CC[C@@]3(O)C#Cc3ccccc3Br)[C@@H]3OCC4=CC(=O)CCC4=C32)cc1` [Compound 21, 17-(2-Bromo-phenylethynyl)-11-(4-dimethylamino-phenyl)-17-hydroxy-13-methyl-1,2,8,11,12,13,14,15,16,17-decahydro-6H-7-oxa-cyclopenta[a]phenanthren-3-one], the IC50 in experiment [1] is 0.0086 µM; in experiment [2], 0.0627 µM.
The corresponding values for `CN(C)c1ccc([C@H]2C[C@@]3(C)[C@@H](CC[C@@]3(O)C#Cc3ccc(C#N)cc3)[C@@H]3OCC4=CC(=O)CCC4=C32)cc1` [Compound 14, 4-[11-(4-Dimethylamino-phenyl)-17-hydroxy-13-methyl-3-oxo-1,2,3,6,8,11,12,13,14,15,16,17-dodecahydro-7-oxa-cyclopenta[a]phenanthren-17-ylethynyl]-benzonitrile] are 0.00367 µM and 0.0413 µM.
On to `CN(C)c1ccc(C2C[C@@]3(C)[C@@H](CC[C@@]3(O)C#Cc3ccc(C(C)(C)C)cc3)[C@@H]3OCC4=CC(=O)CCC4=C23)cc1` (stereo in doubt) [Compound 10, 17-(4-tert-Butyl-phenylethynyl)-11-(4-dimethylamino-phenyl)-17-hydroxy-13-methyl-1,2,8,11,12,13,14,15,16,17-decahydro-6H-7-oxa-cyclopenta[a]phenanthren-3-one], for which the IC50 in experiment [1] came out at 0.0195 µM; in experiment [2] it was 0.0658 µM.
Take `CN(C)c1ccc([C@H]2C[C@@]3(C)[C@@H](CC[C@@]3(O)C#Cc3ccc(Cl)cc3)[C@@H]3OCC4=CC(=O)CCC4=C32)cc1` [Compound 12, 17-(4-Chloro-phenylethynyl)-11-(4-dimethylamino-phenyl)-17-hydroxy-13-methyl-1,2,8,11,12,13,14,15,16,17-decahydro-6H-7-oxa-cyclopenta[a]phenanthren-3-one]: the results for the IC50 in experiment [1] and in experiment [2] were 0.000613 µM and 0.0435 µM, respectively.
For the molecule `CN(C)c1ccc(C2C[C@@]3(C)[C@@H](CC[C@@]3(O)C#CC(C)(C)O)[C@@H]3OCC4=CC(=O)CCC4=C23)cc1` (stereo in doubt) [Compound 6, 11-(4-Dimethylamino-phenyl)-17-hydroxy-17-(3-hydroxy-3-methyl-but-1-ynyl)-13-methyl-1,2,8,11,12,13,14,15,16,17-decahydro-6H-7-oxa-cyclopenta[a]phenanthren-3-one], the figures for the IC50 in experiment [1] and in experiment [2] were over 1 µM and 0.559 µM, respectively.
For `CN(C)c1ccc(C2C[C@@]3(C)[C@@H](CC[C@@]3(O)C#Cc3ccccn3)[C@@H]3OCC4=CC(=O)CCC4=C23)cc1` (stereo in doubt) [Compound 26, 11-(4-Dimethylamino-phenyl)-17-hydroxy-13-methyl-17-pyridin-2-ylethynyl-1,2,8,11,12,13,14,15,16,17-decahydro-6H-7-oxa-cyclopenta[a]phenanthren-3-one] the same measures were 0.034 µM and 0.175 µM.
Regarding `CN(C)c1ccc([C@H]2C[C@@]3(C)[C@@H](CC[C@@]3(O)C#Cc3cccc(C(F)(F)F)c3)[C@@H]3OCC4=CC(=O)CCC4=C32)cc1` [Compound 23, 11-(4-Dimethylamino-phenyl)-17-hydroxy-13-methyl-17-(3-trifluoromethyl-phenylethynyl)-1,2,8,11,12,13,14,15,16,17-decahydro-6H-7-oxa-cyclopenta[a]phenanthren-3-one], the results for the IC50 in experiment [1] and in experiment [2] were 0.00265 µM and 0.0454 µM, respectively.
For `CN(C)c1ccc([C@H]2C[C@@]3(C)[C@@H](CC[C@@]3(O)C#Cc3cccc(F)c3)[C@@H]3OCC4=CC(=O)CCC4=C32)cc1` [Compound 17, 11-(4-Dimethylamino-phenyl)-17-(3-fluoro-phenylethynyl)-17-hydroxy-13-methyl-1,2,8,11,12,13,14,15,16,17-decahydro-6H-7-oxa-cyclopenta[a]phenanthren-3-one] the same measures were 0.00102 µM and 0.0566 µM.
Turning to `CN(C)c1ccc([C@H]2C[C@@]3(C)[C@@H](CC[C@@]3(O)C#Cc3ccsc3)[C@@H]3OCC4=CC(=O)CCC4=C32)cc1` [Compound 29, 11-(4-Dimethylamino-phenyl)-17-hydroxy-13-methyl-17-thiophen-3-ylethynyl-1,2,8,11,12,13,14,15,16,17-decahydro-6H-7-oxa-cyclopenta[a]phenanthren-3-one], the IC50 in experiment [1] was 0.00155 µM; in experiment [2], 0.056 µM.
